Measurements taken from patent publication US7122518B2, “Method for preventing or reducing collateral phototoxic damage to neighboring tissues during photodynamic therapy of a target tissue” (New York University, priority 2002, dated 2006).
“Also recorded” adds a separate entry of the source. Where two headings read alike, the source gives them in different places.

What was measured:
ARPE cells = assay: Competitive quenching by hypericin versus DTHe in ARPE cells (Hemacolor viability); details: for cell viability: 1.73 J/cm^2, Hemacolor after 24 hrs (FIG. 7A)
Description: The cells were treated with the added dianthraquinone compounds for 3 hrs. and with added verteporfin for the last two hrs. The cells were then exposed to 1.73 J/cm^2 of light irradiation at >650 nm and cell viability monitored after 24 hrs. in culture.
(§1) For the Hemacolor assay the cells were fixed with methanol, stained with Hemacolor reagents (Merck, Darmstadt, Germany), the dye eluted and quantified in an ELISA reader at 650 nm. PDT efficacy was expressed as percentage of viable cells in treated wells relative to untreated controls, calculated as (OD650, treated/OD650, untreated)×100.
ARPE or EH endothelial hybridoma cells were seeded at 5×10^4 cells/well in 96 well flat bottom microplates. The cells were allowed to adhere overnight, after which time DTHe or hypericin were added to ARPE cells (FIG. 7A) or to endothelial hybridoma cells (FIG. 7B) at concentrations of 10 or 20 μg/ml and the cells incubated at 37° C. in complete darkness. After one hour incubation with hypericin, verteporfin at concentrations of 0.1, 0.25 and 0.5 μg/ml was added to the cultures, which were then incubated at 37° C. for two additional hours. The supernatants were removed, the cells washed with PBS and the cultures exposed to light irradiation at a dose of 1.73 J/cm^2 at 689 nm. The cultures were then incubated at 37° C. for an additional 24 hrs and cell viability was then determined via the hemacolor assay.

[1] = cited from earlier work
EH endothelial cells = assay: Protection of EH endothelial cells from verteporfin-induced phototoxicity (viability); details: for viability at 20 µM: Homo sapiens, Endothelial cell, light or radiation study
Description: (§2) ARPE or EH cells were plated in 96 well flat bottom microplates 2×10^4 cells/well. The cells were allowed to attach to the plate surface and hypericin was added to the cultures in complete darkness (ambient light kept below <0.03 mW/cm^2 to prevent hypericin-mediated phototoxicity) for time intervals ranging from 3–6 hrs. Verteporfin was then added and was present for the last two hours of the incubation period. At the end of incubation period, the growth medium containing hypericin and verteporfin was removed and replaced with phosphate buffered saline (PBS) and then photosensitized with red light using a fiber-optic non-coherent light delivery system (SeNet Ltd, Israel) in combination with K700 broadband interference filter with central wavelengths at 700 nm and half-height bandwidth of ±40 nm (Rolyn Optics, Covina, Calif.) to selectively excite verteporfin but not hypericin (excitable at 546 and 590 nm). The cultures were then returned to standard growth medium, cultured for 24 hrs in a 37° C., 5% CO2 and cell viability then assayed by the MTT or Hemacolor assays. The fluence rate (mW/cm^2) was measured with a Model IL 1400A radiometer/photometer (International Light Inc., Newburyport, Mass.).
Two methods have been used to monitor cell viability: the MTT assay which measures reduction of MTT to formasan by mitochondria of viable cells and by the Hemacolor assay, a calorimetric microtiter assay that quantifies the amount of dye that binds to viable adherent cells (Keisari, 1992). The cells were plated in flat-bottomed 96 well plates in 200 μl medium containing the photosensitizer. MTT was added to the cells following light irradiation and the plates were incubated for three hours and then analyzed in an ELISA reader at 560 nm. Corrections were made for non-specific absorption of MTT subtracting background values generated in cell free blank wells containing medium and HY at each dose level and MTT.
as §1
EH cells were used for this purpose.

[2] = Biodistribution of hypericin in tissues of tumor-bearing mice (fluorescence); assay type: in vivo; details: BALB/c mice bearing breast adenocarcinoma tumors, preliminary (FIG. 5)
Description: The present inventor aimed to overcome this obstacle by using pharmacokinetic considerations. Hypericin is a lipophilic agent with an alpha half life of approximately 1–2 hours in the circulation. […] It is therefore possible to generate conditions in which hypericin has cleared from the circulation and concentrated in the tissues where it can be useful in protecting from collateral photodynamic damage.

[3] = Hypericin distribution among the layers of the retina after i.v. administration
Description: Rats were sacrificed at 15 min, 2 hrs, 6 hrs and 8 hrs after i.v. administration of hypericin, 2 mg/kg. The eyes were enucleated and frozen initially at −80° C. and subsequently in liquid nitrogen and several cryostat sections (5-μm width) sliced from each sample. To prevent hypericin extraction from the retinal tissues during staining the histological tissue distribution of hypericin among the different layers of the retina was initially examined under an Olympus phase contrast and fluorescence microscope, and the data photographed with a computer-linked digital camera (Multipixel Spectral Imaging System, Applied Spectral Imaging Inc., Israel. Hypericin was excited at 477 nm and its fluorescence recorded by documenting emission intensity at 602 nm. The photographed locations were marked and the sections then stained with Hematoxylin-eosin (H&E) for confirmation of retinal layer identity and compared to the corresponding fluorescence and light microscopy images.
Hypericin at a dose of 2 mg/kg was administered to the tail vein. At 15 minutes, 2, 4, 6 and 8 hrs the rats were anesthesized, the eyes enucleated and frozen sections prepared. The sections were then analyzed by Multipixel Spectral Imaging.

ARPE-19 cells = assay: Protection of ARPE cells from verteporfin-induced phototoxicity (MTT viability); details: for viability at 20 µM: Homo sapiens, ARPE-19, light or radiation study
Description: as §2, with “The cultures were then returned to standard growth medium, cultured for 24 hrs in a 37° C., 5% CO2 and cell viability then assayed by the MTT or Hemacolor assays.” left out
Two methods have been used to monitor cell viability: the MTT assay which measures reduction of MTT to formasan by mitochondria of viable cells and by the Hemacolor assay, a calorimetric microtiter assay that quantifies the amount of dye that binds to viable adherent cells (Keisari, 1992). […] MTT was added to the cells following light irradiation and the plates were incubated for three hours and then analyzed in an ELISA reader at 560 nm. […]
In order to examine whether the red/ox properties of hypericin in the dark can impact on the phototoxic properties of verteporfin (VP), retinal pigmented epithelial cells (ARPE-19) in monolayer cultures were loaded with hypericin by exposure to 5, 10 and 20 μM of this compound for three and six hrs. […] Following irradiation, drug-free fresh medium was introduced, the cells incubated at 37° C. in a 5% CO2 incubator for additional 24 hrs and cell viability then monitored using the MTT assay.

[4] = in vivo, iv; cited from earlier work
[5] = verteporfin 0.25 μg/ml plus quencher 10 μg/ml
[6] = verteporfin 0.25 μg/ml plus quencher 20 μg/ml

Cc1ccc2c(=O)c3c(O)cc(O)c4c5c(O)cc(O)c6c(=O)c7ccc(C)cc7c(c65)c(c2c1)c34 [DTHe, dimethyl tetrahydroxy helianthrone]
competitive quenching of verteporfin-mediated phototoxicity relative to hypericin (ARPE cells; ARPE cells, 10 and 20 μg/ml): much less effective | cell viability (ARPE cells; [5]): 7.5% | cell viability (ARPE cells; [6]): 6%

Cc1cc(O)c2c(=O)c3c(O)cc(O)c4c5c(O)cc(O)c6c(=O)c7c(O)cc(C)c8c1c2c(c34)c(c78)c65 [hypericin]
alpha half-life in the circulation ([1]; circulation): 1 to 2 h | elimination half-life ([1]; human, in vivo): ~48 h | gamma elimination half life from tissues ([1]; in vivo): approximately 48 hrs | viability at 20 µM (EH endothelial cells; read-out: EH cell viability, verteporfin 0.1 μg/ml plus hypericin 20 μM, 0.96 J/cm^2 (FIG. 3A)): 73% | viability at 20 µM (EH endothelial cells; read-out: EH cell viability, verteporfin 0.25 μg/ml plus hypericin 20 μM, 0.96 J/cm^2 (FIG. 3A)): 81% | viability at 20 µM (EH endothelial cells; read-out: EH cell viability, verteporfin 0.5 μg/ml plus hypericin 20 μM, 0.96 J/cm^2 (FIG. 3A)): 49% | EH cell protection from verteporfin-induced phototoxicity (EH endothelial cells; higher doses of light irradiation, 1.73 J/cm^2 (FIG. 3B)): also maintained at higher doses of light irradiation, yet the absolute levels of protection declined | tissue biodistribution [2]: sequester in various tissues for many hours | retinal distribution of hypericin fluorescence ([3]; 15 minutes after 2 mg/kg i.v., rats (FIG. 6A)): confined to the choroidal blood vessels; also recorded: confined mainly to the vasculature | retinal distribution of hypericin fluorescence ([3]; 2 hrs after 2 mg/kg i.v., rats (FIG. 6B)): spreads to the entire retina; also recorded: extravasated to the surrounding tissue was less evident within the vasculature and spread through the choroid | retinal distribution of hypericin fluorescence ([3]; 6 hrs after 2 mg/kg i.v., rats (FIG. 6C)): present only in the retina and not in the blood vessels; also recorded: spread to the entire retina | confinement to the choroidal vasculature ([3]; after i.v. administration to rats (discussion)): mainly confined to the choroidal vasculature for up to one hour | bioavailability to the retina ([3]; hypericin 2 mg/kg i.v. tail vein, rats): bioavailable to the retina | clearance from choroidal vessels and tissue accumulation ([3]; rat, in vivo, iv): beyond 2 hrs was cleared from the choroidal vessels and accumulated in the extravascular choroid and RPE | cell viability (ARPE cells; [5]): 35% | cell viability (ARPE cells; [6]): 32% | viability at 20 µM (ARPE-19 cells; read-out: percent cell viability, verteporfin 0.25 μg/ml plus hypericin 20 μM, 0.75 J/cm^2 >650 nm (FIG. 2A)): 60% | viability at 20 µM (ARPE-19 cells; read-out: percent cell viability, verteporfin 0.5 μg/ml plus hypericin 20 μM, 0.75 J/cm^2 >650 nm (FIG. 2A)): 25% | cell viability preserved (ARPE-19 cells; verteporfin 2 μg/ml, hypericin loaded before photosensitization, RPE or endothelial cells, cell line not specified): up to 46.8%

verteporfin
time remaining in the intravascular compartment [4]: 30 min
